Results: patent US10077261B2, “Imidazolin-5-one derivative useful as FASN inhibitors for the treatment of cancer” (Janssen Pharmaceutica NV, priority 2012, dated 2018)

Columns and labels:
A2780 ovarian cells [1] = experiment: A2780 ovarian cell proliferation assay in lipid reduced medium, with palmitate (MTT); format: cell-based; settings: Homo sapiens, A2780, 96 h; read-out: pIC50 A2780 Ovarian Cell, With Palmitate (converted)
Experimental: (§1) The biological assays described below correspond to comparative assays for ovarian cell proliferation. […] Compounds active in the absence of palmitate would not be expected to be active in the control.
(§2) 2500 cells were seeded in a 96-well clear well plate in 200 μL RPMI1640 with 10% Fetal Calf Serum (Hyclone), and incubated at 37° C., 5% CO2. Blanks were wells without cells. The next day the culture medium was aspirated and replaced by 160 μL culture medium with 10% Lipid-Reduced Serum (LRS, Hyclone). 20 μL test compound (at concentrations of 30 μM, 10 μM, 3 μM, 1 μM, 0.30 μM, 0.10 μM, 0.03 μM and 0.01 μM)/DMSO dilution followed by 20 μL palmitate-BSA solution were added to a final concentrations of 0.2% DMSO, 25 μM palmitate (Sigma, P0500, 10 mM stock solution in ethanol) 0.2% fatty-acid-free BSA, 0.25% ethanol. After 96 h incubation, an MTT assay was performed. The absorbance was measured at 544 nm on a SPECTRAMAX brand microplate reader (Molecular Devices).
A best fit curve was fitted by a minimum sum of squares method, plotting Controlmin versus test compound concentration.
(§3) Representative compounds of the present invention were tested according to the procedure as described in Biological Example 3 above, with results as listed in Table 8, below.

A2780 ovarian cells [2] = experiment: A2780 ovarian cell proliferation assay in lipid reduced medium, without palmitate (MTT); format: cell-based; settings: Homo sapiens, A2780, 96 h; read-out: pIC50 A2780 Ovarian Cell, Without Palmitate (converted)
Experimental: as §1
as §2, with “ethanol-BSA” for “palmitate-BSA”, “DMSO,” for “DMSO, 25 μM palmitate (Sigma, P0500, 10 mM stock solution in ethanol)”, “incubation” for “incubation,”
where mLC and mHC were the means of the low control wells and high control wells on the plate, after manual exclusion of outliers. A plot of Controlmin versus test compound concentration was fitted to a 4-parameter logistic curve using a non-linear least squares regression method.
as §3

[3] = target: T1, hFASN enzyme (full length) (Homo sapiens, UniProt P49327); experiment: Fatty Acid Synthase (FASN) inhibition scintillation proximity assay; format: biochemical; settings: for inhibition at 10 µM: read-out: Human FASN % inhibition @ 10 μM, 10 μM test compound; for IC50: read-out: Human FASN pIC50 (converted)
T1 construct: 10 μL hFASN enzyme (full length, 300 ng, purified in house); made in house
T1 sequence (P49327 whole entry): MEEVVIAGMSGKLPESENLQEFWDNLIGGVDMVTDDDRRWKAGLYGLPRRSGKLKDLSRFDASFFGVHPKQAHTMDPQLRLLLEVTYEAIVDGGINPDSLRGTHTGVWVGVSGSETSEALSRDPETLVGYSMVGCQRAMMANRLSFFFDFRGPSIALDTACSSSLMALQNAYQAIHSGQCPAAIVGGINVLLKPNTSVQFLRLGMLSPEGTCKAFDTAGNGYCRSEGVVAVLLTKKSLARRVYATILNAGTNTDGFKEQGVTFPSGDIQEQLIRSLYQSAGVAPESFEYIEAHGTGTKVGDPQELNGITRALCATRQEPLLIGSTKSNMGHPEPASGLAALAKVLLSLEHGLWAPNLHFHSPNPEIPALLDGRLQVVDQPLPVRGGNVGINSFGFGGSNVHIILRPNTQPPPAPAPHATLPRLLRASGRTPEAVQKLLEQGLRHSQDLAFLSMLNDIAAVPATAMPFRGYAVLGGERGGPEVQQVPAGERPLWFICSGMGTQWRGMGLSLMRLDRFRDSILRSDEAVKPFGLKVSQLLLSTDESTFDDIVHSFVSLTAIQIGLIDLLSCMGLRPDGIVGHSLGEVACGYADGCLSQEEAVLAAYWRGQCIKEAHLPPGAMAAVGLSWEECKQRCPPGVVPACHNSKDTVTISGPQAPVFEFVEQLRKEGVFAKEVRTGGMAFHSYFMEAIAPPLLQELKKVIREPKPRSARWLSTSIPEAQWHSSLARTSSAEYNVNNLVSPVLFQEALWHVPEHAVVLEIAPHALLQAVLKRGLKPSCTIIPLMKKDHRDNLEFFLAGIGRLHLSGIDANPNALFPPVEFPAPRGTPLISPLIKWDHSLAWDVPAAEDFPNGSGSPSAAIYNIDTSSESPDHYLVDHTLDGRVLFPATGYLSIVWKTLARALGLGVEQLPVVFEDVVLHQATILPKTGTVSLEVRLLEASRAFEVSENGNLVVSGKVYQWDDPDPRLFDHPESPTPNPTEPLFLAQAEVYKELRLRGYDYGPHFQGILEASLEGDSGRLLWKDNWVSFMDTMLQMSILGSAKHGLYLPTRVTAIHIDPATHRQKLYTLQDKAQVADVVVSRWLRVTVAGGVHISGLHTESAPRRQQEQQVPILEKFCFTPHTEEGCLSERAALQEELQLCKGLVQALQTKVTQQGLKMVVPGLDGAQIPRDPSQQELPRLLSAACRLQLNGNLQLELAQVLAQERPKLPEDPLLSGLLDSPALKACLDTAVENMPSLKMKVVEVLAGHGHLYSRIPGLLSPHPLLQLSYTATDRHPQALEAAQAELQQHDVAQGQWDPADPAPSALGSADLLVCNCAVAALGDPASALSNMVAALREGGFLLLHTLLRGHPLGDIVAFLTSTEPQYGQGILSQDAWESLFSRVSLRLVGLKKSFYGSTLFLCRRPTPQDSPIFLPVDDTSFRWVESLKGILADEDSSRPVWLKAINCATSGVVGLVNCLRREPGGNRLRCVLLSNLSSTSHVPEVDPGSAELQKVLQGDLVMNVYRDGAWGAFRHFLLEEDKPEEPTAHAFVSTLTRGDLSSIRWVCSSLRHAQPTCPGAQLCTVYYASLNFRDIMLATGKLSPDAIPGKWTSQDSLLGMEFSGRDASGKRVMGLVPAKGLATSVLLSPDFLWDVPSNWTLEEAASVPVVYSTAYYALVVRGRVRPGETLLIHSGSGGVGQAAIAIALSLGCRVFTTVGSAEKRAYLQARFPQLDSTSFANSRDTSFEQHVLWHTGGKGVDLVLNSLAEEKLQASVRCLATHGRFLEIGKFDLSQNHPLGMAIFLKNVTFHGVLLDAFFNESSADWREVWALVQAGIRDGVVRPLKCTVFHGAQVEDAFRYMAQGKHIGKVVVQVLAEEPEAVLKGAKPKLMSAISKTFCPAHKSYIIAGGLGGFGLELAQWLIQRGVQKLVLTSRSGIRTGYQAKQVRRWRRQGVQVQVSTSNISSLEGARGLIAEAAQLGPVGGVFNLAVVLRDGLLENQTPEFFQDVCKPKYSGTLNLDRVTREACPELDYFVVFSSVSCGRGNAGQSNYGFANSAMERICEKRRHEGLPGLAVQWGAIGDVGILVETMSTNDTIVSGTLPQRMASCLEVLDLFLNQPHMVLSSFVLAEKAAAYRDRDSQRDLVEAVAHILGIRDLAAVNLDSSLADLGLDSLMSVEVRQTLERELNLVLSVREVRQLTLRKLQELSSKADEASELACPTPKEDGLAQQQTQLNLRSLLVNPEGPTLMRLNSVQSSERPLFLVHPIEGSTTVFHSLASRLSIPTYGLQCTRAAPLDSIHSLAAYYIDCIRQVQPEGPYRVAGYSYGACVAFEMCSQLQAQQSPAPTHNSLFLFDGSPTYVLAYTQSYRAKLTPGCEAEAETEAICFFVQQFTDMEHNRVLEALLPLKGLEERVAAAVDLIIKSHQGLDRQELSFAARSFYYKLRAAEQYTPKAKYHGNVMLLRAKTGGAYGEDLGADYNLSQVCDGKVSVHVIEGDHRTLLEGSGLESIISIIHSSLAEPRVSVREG
Procedure, shortened: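 Scintillation proximity format: in-house full-length enzyme, 300 ng per well, pH 7.5 phosphate/DTT buffer, ³H-acetyl-CoA and malonyl-CoA. Emission counted on LEADseeker at 610 nm at least 24 h after stopping.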

| SMILES | IC50 (A2780 ovarian cells [1]) | IC50 (A2780 ovarian cells [2]) | inhibition at 10 µM [3] | IC50 [3] |
| --- | --- | --- | --- | --- |
| Cn1ncc2cc(-c3ccc(C4=NC5(CC5)C(=O)N4CC4CCN(C(=O)C5CC5)CC4)cc3)ccc21 [compound 19, 6-{[1-(Cyclopropylcarbonyl)piperidin-4-yl]methyl}-5-[4-(1-methyl-1H-indazol-5-yl)phenyl]-4,6-diazaspiro[2.4]hept-4-en-7-one] | > 6.17 µM | 4.68 µM | – | – |
| Cn1ncc2cc(-c3ccc(C4=NC5(CC5)C(=O)N4C[C@@H]4CCN(C(=O)C5CC5)C4)cc3)ccc21 [compound 28, 6-{[(3R)-1-(Cyclopropylcarbonyl)pyrrolidin-3-yl]methyl}-5-[4-(1-methyl-1H-indazol-5-yl)phenyl]-4,6-diazaspiro[2.4]hept-4-en-7-one] | > 10 µM | 0.132 µM | – | – |
| Cn1ncc2cc(-c3ccc(C4=NC5(CCCC5)C(=O)N4C[C@@H]4CCN(C(=O)C5CC5)C4)cc3)ccc21 [compound 35, 3-{[(3R)-1-(Cyclopropylcarbonyl)pyrrolidin-3-yl]methyl}-2-[4-(1-methyl-1H-indazol-5-yl)phenyl]-1,3-diazaspiro[4.4]non-1-en-4-one] | > 10 µM | 0.479 µM | – | – |
| O=C(C1CC1)N1CC[C@@H](CN2C(=O)C3(CC3)N=C2c2ccc(-c3ccc4scnc4c3)cc2)C1 [compound 71, 5-[4-(1,3-Benzothiazol-5-yl)phenyl]-6-{[(3R)-1-(cyclopropylcarbonyl)pyrrolidin-3-yl]methyl}-4,6-diazaspiro[2.4]hept-4-en-7-one] | > 10 µM | 0.0363 µM | – | – |
| O=C(C1CC1)N1CC(CN2C(=O)C3(CC3)N=C2c2ccc(-c3ccc(-c4cnn(C5CCC5)c4)cc3)cc2F)C1 [compound 329, 5-(4′-(1-cyclobutyl-1H-pyrazol-4-yl)-3-fluoro-[1,1′-biphenyl]-4-yl)-6-((1-(cyclopropanecarbonyl)azetidin-3-yl)methyl)-4,6-diazaspiro[2.4]hept-4-en-7-one] | 3.09 µM | 0.0141 µM | – | – |
| Cc1cc(-c2ccc(-c3cnn(C4CCC4)c3)cc2)ccc1C1=NC2(CC2)C(=O)N1CC1CN(C(=O)C2CC2)C1 [compound 330, 5-(4′-(1-cyclobutyl-1H-pyrazol-4-yl)-3-methyl-[1,1′-biphenyl]-4-yl)-6-((1-(cyclopropanecarbonyl)azetidin-3-yl)methyl)4,6-diazaspiro[2.4]hept-4-en-7-one] | ~6.17 µM | 0.0324 µM | – | – |
| O=C(C1CC1)N1CC[C@H](CN2C(=O)C3(CC3)N=C2c2ccc(-c3ccc4[nH]ncc4c3)cc2)C1 [compound 431, 6-{[(3S)-1-(Cyclopropylcarbonyl)pyrrolidin-3-yl]methyl}-5-[4-(1H-indazol-5-yl)phenyl]-4,6-diazaspiro[2.4]hept-4-en-7-one] | > 10 µM | 0.204 µM | – | – |
| CS(=O)(=O)N1CC[C@@H](CN2C(=O)C3(CCOCC3)N=C2c2ccc(-c3ccc4cccnc4c3)cc2)C1 [compound 960] | – | – | -2% | > 10 µM |
| O=C(N1CC(CN2C(=O)C3(CCOCC3)N=C2c2ccc(-c3ccc4occc4c3)cc2)C1)C(F)(F)F [compound 961, 2-(4-(benzofuran-5-yl)phenyl)-3-((1-(2,2,2-trifluoroacetyl)azetidin-3-yl)methyl)-8-oxa-1,3-diazaspiro[4.5]dec-1-en-4-one] | – | – | 7% | > 10 µM |
| COC(=O)N1CC2(C1)N=C(c1ccc(-c3ccc4cccnc4c3)cc1)N(C[C@@H]1CCN(C(=O)c3nccs3)C1)C2=O [compound 962, (R)-methyl 8-oxo-6-(4-(quinolin-7-yl)phenyl)-7-((1-(thiazole-2-carbonyl)pyrrolidin-3-yl)methyl)-2,5,7-triazaspiro[3.4]oct-5-ene-2-carboxylate] | – | – | 43% | > 10 µM |

Other lines, results leading:

| IC50 (A2780 ovarian cells [1]) | IC50 (A2780 ovarian cells [2]) | inhibition at 10 µM [3] | IC50 [3] | SMILES |
| --- | --- | --- | --- | --- |
| > 10 µM | 0.00776 µM | – | – | O=C(C1CC1)N1CC[C@@H](CN2C(=O)C3(CC3)N=C2c2ccc(-c3ccc4cnccc4c3)cc2)C1 [compound 47, 6-{[(3R)-1-(Cyclopropylcarbonyl)pyrrolidin-3-yl]methyl}-5-(4-isoquinolin-6-ylphenyl)-4,6-diazaspiro[2.4]hept-4-en-7-one] |
| > 10 µM | 0.339 µM | – | – | O=C(C1CC1)N1CC[C@@H](CN2C(=O)C3(CC3)N=C2c2ccc(-c3ccc4occc4c3)cc2)C1 [compound 58, (R)-5-(4-(Benzofuran-5-yl)phenyl)-6-((1-(cyclopropanecarbonyl)pyrrolidin-3-yl)methyl)-4,6-diazaspiro[2.4]hept-4-en-7-one] |
| > 10 µM | 1.02 µM | – | – | O=C(C1CC1)N1CC[C@@H](CN2C(=O)C3(CC3)N=C2c2ccc(-c3cccc(Cl)c3)cc2)C1 [compound 112, 5-(3′-Chlorobiphenyl-4-yl)-6-{[(3R)-1-(cyclopropylcarbonyl)pyrrolidin-3-yl]methyl}-4,6-diazaspiro[2.4]hept-4-en-7-one] |
| > 3.02 µM | 0.372 µM | – | – | Cc1cc(-c2ccc3c(c2)c(C#N)nn3C)ccc1C1=NC2(CC2)C(=O)N1CC1CN(C(=O)C2CC2)C1 [compound 836, 5-(4-(6-((1-(cyclopropanecarbonyl)azetidin-3-yl)methyl)-7-oxo-4,6-diazaspiro[2.4]hept-4-en-5-yl)-3-methylphenyl)-1-methyl-1H-indazole-3-carbonitrile] |
| > 3.02 µM | 1.23 µM | – | – | O=C(N1CC(CN2C(=O)C3(CC3)N=C2c2ccc(-c3ccc4c(cnn4CCO)c3)cc2F)C1)C1(O)CC1 [compound 837, 5-(2-fluoro-4-(1-(2-hydroxyethyl)-1H-indazol-5-yl)phenyl)-6-((1-(1-hydroxycyclopropanecarbonyl)azetidin-3-yl)methyl)-4,6-diazaspiro[2.4]hept-4-en-7-one] |
| > 3.02 µM | > 3.02 µM | – | – | O=C(C1CC1)N1CC(CN2C(=O)C3(CC3)N=C2c2ccc(-c3ccc4ccc(=O)[nH]c4c3)cc2)C1 [compound 840] |
| – | – | 8% | > 10 µM | COC(=O)N1CC2(C1)N=C(c1ccc(-c3ccc4occc4c3)cc1)N(C[C@@H]1CCN(S(C)(=O)=O)C1)C2=O [compound 956, (S)-methyl 6-(4-(benzofuran-5-yl)phenyl)-7-((1-(methylsulfonyl)pyrrolidin-3-yl)methyl)-8-oxo-2,5,7-triazaspiro[3.4]oct-5-ene-2-carboxylate] |
| – | – | -6% | > 10 µM | O=C(c1nccs1)N1CC[C@@H](CN2C(=O)C3(CCOCC3)N=C2c2ccc(-c3ccc4occc4c3)cc2)C1 [compound 958, (R)-2-(4-(benzofuran-5-yl)phenyl)-3-((1-(thiazole-2-carbonyl)pyrrolidin-3-yl)methyl)-8-oxa-1,3-diazaspiro[4.5]dec-1-en-4-one] |
| – | – | -7% | > 10 µM | Cn1ncc2cc(-c3ccc(C4=NC5(CCOCC5)C(=O)N4C[C@@H]4CCN(C(=O)c5nccs5)C4)cc3)ccc21 [compound 959, (R)-2-(4-(1-methyl-1H-indazol-5-yl)phenyl)-3-((1-(thiazole-2-carbonyl)pyrrolidin-3-yl)methyl)-8-oxa-1,3-diazaspiro[4.5]dec-1-en-4-one] |
| – | – | 41% | ~11 µM | Cn1ncc2cc(-c3ccc(C4=NC5(CCN(C(=O)C(F)(F)F)CC5)C(=O)N4CC4CN(C(=O)C5CC5)C4)cc3)ccc21 [compound 964, 3-((1-(cyclopropanecarbonyl)azetidin-3-yl)methyl)-2-(4-(1-methyl-1H-indazol-5-yl)phenyl)-8-(2,2,2,-trifluoroacetyl)-1,3,8-triazaspiro[4.5]dec-1-en-4-one] |
